Tests used:
[1] = tested on: E. coli DH5a with pLBII plasmid with no β-lactamase gene; experiment: Broth microdilution MIC, engineered E. coli control strain (pLBII plasmid, no β-lactamase gene); type: cell-based; conditions: Escherichia coli, read-out: MIC, β-lactamase None
Experimental: (§1) To determine the ability of test compounds to potentiate the inhibition of the growth of bacterial strains, classic cell based broth microdilution MIC assays were employed. MIC assays are performed according to CLSI methods except where otherwise noted (CLSI, 2011 and CLSI, 2009). The reference strain S. aureus ATCC 29213 and the hyper-permeable E. coli 901C were used to determine the ability of the PBP compounds to inhibit bacterial growth. Briefly, cryo-preserved bacterial cultures of clinical strains are streaked for isolation on appropriate agar medium, in this case Mueller Hinton II agar. Following incubation to allow formation of colonies these plates are sealed with parafilm and stored refrigerated for up to two weeks. For preparation of assay inocula and to ensure low variability, at least 5 colonies are picked from the agar plates with an inoculating loop and aseptically transferred to a culture tube containing 3 mL of Mueller-Hinton Broth (supplemented with divalent cations to required levels based on Manufacturers' certification). The broth culture is grown for 3-5 hours at 37° C. with shaking at 200 rpm. Meanwhile, 2-fold serial dilutions of test compounds are conducted in a 96 well plate with a final volume of 75 μL per well at 2-fold the final desired concentration. After the dilution plates are set up the growing cultures are then diluted in a cuvette containing MH II broth and the optical density is measured at 600 nm. Inocula are diluted such that 75 μL of this culture in Mueller-Hinton Broth results in a starting bacterial concentration of 5×10^5 CFU/mL when added to the dilution plates. The plates are incubated 16-20 hours at 37° C. The MIC is read visually as the lowest concentration well with no bacterial growth.
(§2) To determine if test compounds were affected by various known β-lactamases, the inhibition of the growth of engineered strains of Escherichia coli harboring select single β-lactamases were tested. […]

[2] = tested on: E. coli DH5a harboring SHV-5; experiment: Broth microdilution MIC, engineered E. coli expressing SHV-5; type: cell-based; conditions: Escherichia coli, read-out: MIC, β-lactamase SHV
Experimental: as §1, §2

[3] = tested on: E. coli DH5a harboring TEM-24; experiment: Broth microdilution MIC, engineered E. coli expressing TEM-24; type: cell-based; conditions: Escherichia coli, read-out: MIC, β-lactamase TEM
Experimental: as §1, §2

[4] = tested on: E. coli DH5a harboring VIM-2; experiment: Broth microdilution MIC, engineered E. coli expressing VIM-2; type: cell-based; conditions: Escherichia coli, read-out: MIC, β-lactamase VIM
Experimental: as §1, §2

[5] = tested on: engineered strains of Escherichia coli harboring select single β-lactamases; experiment: MIC across the panel of engineered E. coli strains harboring select single β-lactamases; type: cell-based; conditions: strains expressing β-lactamases compared with control strain, result in words
Experimental: To determine if test compounds were affected by various known β-lactamases, the inhibition of the growth of engineered strains of Escherichia coli harboring select single β-lactamases were tested. These strains were constructed by cloning the gene encoding the particular β-lactamase into the NdeI and BamHI restriction endonuclease sites of plasmid pLBII, placing the gene(s) under the control of the Lac promoter.

[6] = tested on: E. coli DH5a harboring IMP-18; experiment: Broth microdilution MIC, engineered E. coli expressing IMP-18; type: cell-based; conditions: Escherichia coli, read-out: MIC, β-lactamase IMP
Experimental: as §1, §2

[7] = tested on: E. coli DH5a harboring NDM-1; experiment: Broth microdilution MIC, engineered E. coli expressing NDM-1; type: cell-based; conditions: Escherichia coli, read-out: MIC, β-lactamase NDM
Experimental: as §1, §2

[8] = tested on: E. coli DH5a harboring OXA-48; experiment: Broth microdilution MIC, engineered E. coli expressing OXA-48; type: cell-based; conditions: Escherichia coli, read-out: MIC, β-lactamase OXA
Experimental: as §1, §2

[9] = tested on: E. coli DH5a harboring CTX-M15; experiment: Broth microdilution MIC, engineered E. coli expressing CTX-M15; type: cell-based; conditions: Escherichia coli, read-out: MIC, β-lactamase CTXM
Experimental: as §1, §2

[10] = target: T1, E. coli K12 PBP1b (Escherichia coli, UniProt P02919); experiment: Competition binding assay using Bodipy-FL boronic acid probe (Example 125); conditions: Bodipy-FL boronic acid probe (Example 125) 30 μM, 10 minutes pre-incubation, 10 minutes reaction
T1 construct: endogenous in cells; host or cells: Escherichia coli K12, membrane protein fraction
T1 sequence (P02919 whole entry): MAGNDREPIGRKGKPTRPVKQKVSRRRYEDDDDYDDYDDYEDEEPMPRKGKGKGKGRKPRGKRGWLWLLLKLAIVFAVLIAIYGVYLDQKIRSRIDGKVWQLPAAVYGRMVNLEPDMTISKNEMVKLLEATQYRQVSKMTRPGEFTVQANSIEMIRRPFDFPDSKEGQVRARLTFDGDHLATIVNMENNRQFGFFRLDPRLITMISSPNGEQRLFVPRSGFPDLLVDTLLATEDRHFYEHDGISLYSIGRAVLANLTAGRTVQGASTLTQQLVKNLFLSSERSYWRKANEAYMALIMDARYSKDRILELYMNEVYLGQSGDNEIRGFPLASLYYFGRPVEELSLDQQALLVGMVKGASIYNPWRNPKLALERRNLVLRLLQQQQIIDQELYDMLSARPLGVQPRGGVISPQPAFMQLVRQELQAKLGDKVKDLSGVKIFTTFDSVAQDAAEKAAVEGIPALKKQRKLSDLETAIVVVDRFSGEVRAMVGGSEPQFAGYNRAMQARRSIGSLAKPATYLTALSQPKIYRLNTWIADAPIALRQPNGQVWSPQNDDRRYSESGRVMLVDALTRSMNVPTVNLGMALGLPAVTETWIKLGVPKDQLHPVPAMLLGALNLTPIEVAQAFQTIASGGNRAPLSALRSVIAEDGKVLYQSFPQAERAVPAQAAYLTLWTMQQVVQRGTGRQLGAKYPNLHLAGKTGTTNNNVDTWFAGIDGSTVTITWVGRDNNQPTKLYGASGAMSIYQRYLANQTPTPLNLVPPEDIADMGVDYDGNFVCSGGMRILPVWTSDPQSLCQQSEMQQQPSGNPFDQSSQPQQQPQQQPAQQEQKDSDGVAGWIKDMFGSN
Experimental: Penicillin binding proteins were isolated from Escherichia coli K12 by growth of Escherichia coli K12 from a single colony in 4 L of Luria-Bertani (LB) broth at 35° C. and 250 rpm to an OD600 nm of 0.5. The cells were harvested by centrifugation at 7,000×g for 10 min. at 4° C. Cells were resuspended and washed in 50 mM potassium phosphate pH 7.5. The cells were re-suspended in sonication buffer [50 mM Tris-HCl pH 7.5, 1 mM MgCl2, 1 mM beta-mercaptoethanol, and 5 μg/mL DNAse I] and sonicated by 4 passes of 30 seconds at 45 W on ice. The sample was clarified by centrifugation at 3,000×g to remove cell debris and unbroken cells and supernatant containing the membrane proteins was retained. The membrane proteins including the PBPs were further purified from soluble constituents by an ultracentrifugation step at 100,000×g for 30 min. at 4° C. The membrane proteins are washed twice with 10 mM sodium phosphate pH 7, resuspended in a volume of 5 mL, quantitated by BCA assay, adjusted to […] and frozen at −80° C. until use.
The adapted Bocillin FL competition binding method described herein incorporates a 15 min. pre-incubation of test compound with isolated PBPs to attempt to balance the difference in mechanism of inhibition between beta-lactams (largely irreversible covalent bond to active site Serine) and the boron-containing PBP inhibitor test compounds (reversible covalent bond to active site Serine). Briefly, 50 μL reactions consisted of 100 μg's of total membrane protein extracts containing PBPs incubated with a dilution series of test compound ranging from 0.005 μg/mL to 2,480 μg/mL in 10 mM sodium phosphate pH7 containing 350 mM NaCl. Thirty minute reactions at 35° C. were initiated by addition of […] Bocillin FL, quenched by addition of SDS-PAGE loading buffer containing sodium dodecyl sulfate (SDS) and heated for 15 minutes at 95° C. to denature proteins in preparation for SDS-polyacrylamide gel electrophoresis. The Bocillin FL labeled PBPs are then separated by SDS-PAGE in Novex NuPage 10% Bis-Tris pre-cast gels (Invitrogen). The SDS-PAGE gel, post-electrophoresis, is then washed in water to remove excess SDS for 10 minutes at room temperature and placed on the scanning bed of a GE Healthcare/Amersham Biosciences Storm 860 fluorescence scanner. The excitation wavelength is in the blue spectrum at 450 nm and the emission at 520 nm is captured by the instrument. Effective PBP inhibitors are detected by a reduction in Bocillin FL labeling of the particular PBP over the dose range of test compound in a dose-responsive manner. High molecular weight PBP 1a/1b are not resolved by these gels, thus we report HMW PBP binding results in μg/mL for PBPs 1a/1b combined as well as for PBP2 and PBP3.
To determine the ability of boronic acid-based test PBP inhibitors to bind Penicillin Binding Proteins (PBPs), a competition binding assay using a Bodipy-FL-labeled boronic acid PBP inhibitor (Example 125) was adapted from the classical method used to assess PBP potency of beta-lactams using Bocillin-FL (fluorescently-labeled penicillin V). The method is identical to that described in Example I for the Bocillin-FL competition binding assay with the following exceptions, the Bodipy-FL boronic acid probe (Example 125) is used at a final concentration of 30 μM, pre-incubation time of test compound with PBP enzymes is 10 minutes and reaction time is set for 10 minutes and reactions are prepared for SDS-PAGE analysis by simply adding SDS-containing loading buffer. Representative results are shown in Table 5, where A represents a potency of >1000 μg/mL, B represents a potency between 64 and 1000 μg/mL inclusive, and C represents a potency of <64 μg/mL. NT=Not Tested.

[11] = target: T2, E. coli PBP2 (Escherichia coli, UniProt P0AD65); experiment: Bocillin FL competition binding assay, PBP2; parameters: species or system Escherichia coli K12; conditions: 15 min pre-incubation
T2 construct: 100 μg's of total membrane protein extracts containing PBPs; endogenous in cells; host or cells: Escherichia coli K12, membrane protein fraction
T2 sequence (P0AD65 whole entry): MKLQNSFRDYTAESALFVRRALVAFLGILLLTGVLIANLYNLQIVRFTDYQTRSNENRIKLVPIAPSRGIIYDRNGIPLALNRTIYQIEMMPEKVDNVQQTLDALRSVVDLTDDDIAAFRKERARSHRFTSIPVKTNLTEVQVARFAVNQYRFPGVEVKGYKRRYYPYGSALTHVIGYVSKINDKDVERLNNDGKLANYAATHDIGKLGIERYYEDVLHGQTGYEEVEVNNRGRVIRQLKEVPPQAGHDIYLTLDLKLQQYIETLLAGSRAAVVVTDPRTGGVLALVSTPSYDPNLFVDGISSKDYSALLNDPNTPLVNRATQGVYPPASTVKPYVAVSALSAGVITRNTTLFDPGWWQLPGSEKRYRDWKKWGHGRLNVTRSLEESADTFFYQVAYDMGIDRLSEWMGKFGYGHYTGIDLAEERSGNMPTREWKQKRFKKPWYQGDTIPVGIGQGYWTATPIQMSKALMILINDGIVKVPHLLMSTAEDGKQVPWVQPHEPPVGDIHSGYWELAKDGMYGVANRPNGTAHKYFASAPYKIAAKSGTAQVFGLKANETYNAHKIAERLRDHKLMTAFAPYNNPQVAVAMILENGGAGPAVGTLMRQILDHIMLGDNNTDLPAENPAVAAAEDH
Outline: (§3)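 E. coli K12 membrane extracts (100 µg protein) pre-incubated 15 min with compound (0.005–2,480 µg/mL) in pH 7 phosphate/350 mM NaCl, then labelled with Bocillin FL 30 min at 35°C; SDS-PAGE fluorescence (ex 450/em 520 nm), μg/mL reported. PBP1a/1b unresolved, reported combined.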

[12] = tested on: E. coli K12 PBP1a/b; experiment: Bocillin FL competition binding assay, PBP1a/1b combined; parameters: species or system Escherichia coli K12; conditions: 15 min pre-incubation, PBP 1a/1b combined
Outline: as §3

[13] = target: T3, E. coli PBP3 (Escherichia coli, UniProt P0AD68); experiment: Bocillin FL competition binding assay, PBP3; parameters: species or system Escherichia coli K12; conditions: 15 min pre-incubation
T3 construct: 100 μg's of total membrane protein extracts containing PBPs; endogenous in cells; host or cells: Escherichia coli K12, membrane protein fraction
T3 sequence (P0AD68 1-577): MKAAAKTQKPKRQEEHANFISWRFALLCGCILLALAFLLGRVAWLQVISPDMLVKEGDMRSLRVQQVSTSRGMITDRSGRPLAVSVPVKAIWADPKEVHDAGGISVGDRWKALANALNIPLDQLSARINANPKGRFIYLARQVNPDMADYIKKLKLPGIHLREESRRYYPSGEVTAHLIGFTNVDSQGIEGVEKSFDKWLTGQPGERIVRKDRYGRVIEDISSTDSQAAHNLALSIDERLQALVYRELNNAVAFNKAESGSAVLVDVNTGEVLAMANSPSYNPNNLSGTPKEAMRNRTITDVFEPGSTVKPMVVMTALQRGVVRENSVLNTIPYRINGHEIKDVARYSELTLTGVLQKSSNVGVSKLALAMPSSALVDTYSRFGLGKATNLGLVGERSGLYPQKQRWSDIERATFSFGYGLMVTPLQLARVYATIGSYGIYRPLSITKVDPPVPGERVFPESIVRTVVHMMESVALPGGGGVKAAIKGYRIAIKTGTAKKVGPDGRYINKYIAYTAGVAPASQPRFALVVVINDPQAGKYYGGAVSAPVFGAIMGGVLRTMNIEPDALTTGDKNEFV
Outline: as §3

[14] = tested on: hyper-permeable E. coli 901C; experiment: Broth microdilution MIC assay, hyper-permeable E. coli; type: cell-based; conditions: Escherichia coli, read-out: E. coli 901C MIC
Outline: (§4)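 Visual no-growth endpoint defines the MIC. Inoculum of 5×10^5 CFU/mL in divalent-cation-supplemented Mueller-Hinton broth was exposed to 2-fold dilution series of compound, then incubated 16-20 hours at 37° C per CLSI.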

[15] = tested on: S. aureus ATCC 29213; experiment: Broth microdilution MIC assay, S. aureus; type: cell-based; conditions: Staphylococcus aureus, ATCC29213; broth microdilution, 16-20 hours at 37° C.; read-out: S. aureus 29213 MIC
Outline: as §4

Row | Structure (SMILES) | MIC [1] [µg/mL] | MIC [2] [µg/mL] | MIC [3] [µg/mL] | MIC [4] [µg/mL] | Effect of expressed β-lactamase on MIC [5] | MIC [6] [µg/mL] | MIC [7] [µg/mL] | MIC [8] [µg/mL] | MIC [9] [µg/mL] | E. coli K12 PBP1b Potency [10] | E. coli PBP2 Potency [11] | E. coli K12 PBP1a/b Potency [12] | E. coli PBP3 Potency [13] | MIC [14] [µg/mL] | MIC [15] [µg/mL]
1 | C[C@H]1[C@H](NC(=O)/C(=N\OC(C)(C)C(=O)O)c2csc(N)n2)C(=O)N1S(=O)(=O)O [Aztreonam, reference compound] | 0.06 | 8 | 1 | 0.06 | weaker MICs in those strains | 0.06 | 0.06 | 0.125 | 32 | – | – | – | – | – | –
2 | CC(C)NC(=N)c1ccc(OCCO/N=C(\C(=O)N[C@H]2Cc3cccc(C(=O)O)c3OB2O)c2csc(N)n2)cc1 [Example 49, (R,Z)-3-(2-(2-aminothiazol-4-yl)-2-((2-(4-(N-isopropylcarbamimidoyl)phenoxy)ethoxy)imino)acetamido)-2-hydroxy-3,4-dihydro-2H-benzo[e][1,2]oxaborinine-8-carboxylic Acid] | – | – | – | – | – | – | – | – | – | A (A represents a potency of >1000 μg/mL) | B (B represents a potency between 64 and 1000 μg/mL inclusive) | B (B represents a potency between 64 and 1000 μg/mL inclusive) | B (B represents a potency between 64 and 1000 μg/mL inclusive) | < 64 | 64 to 128
3 | Nc1nc(/C(=N/OCC2CCNCC2)C(=O)N[C@H]2Cc3cccc(C(=O)O)c3OB2O)cs1 [Example 52, (R,Z)-3-(2-(2-aminothiazol-4-yl)-2-((piperidin-4-ylmethoxy)imino)acetamido)-2-hydroxy-3,4-dihydro-2H-benzo[e][1,2]oxaborinine-8-carboxylic Acid] | – | – | – | – | – | – | – | – | – | B (B represents a potency between 64 and 1000 μg/mL inclusive) | A (A represents a potency of >1000 μg/mL) | A (A represents a potency of >1000 μg/mL) | A (A represents a potency of >1000 μg/mL) | < 64 | > 128
4 | Nc1nc(/C(=N/OCC(=O)NC2CCNCC2)C(=O)N[C@H]2Cc3cccc(C(=O)O)c3OB2O)cs1 [Example 59, (R,Z)-3-(2-(2-aminothiazol-4-yl)-2-((2-oxo-2-(piperidin-4-ylamino)ethoxy)imino)acetamido)-2-hydroxy-3,4-dihydro-2H-benzo[e][1,2]oxaborinine-8-carboxylic Acid] | – | – | – | – | – | – | – | – | – | B (B represents a potency between 64 and 1000 μg/mL inclusive) | C (C represents a potency of <64 μg/mL) | B (B represents a potency between 64 and 1000 μg/mL inclusive) | C (C represents a potency of <64 μg/mL) | < 64 | > 128
5 | NC(=O)CO/N=C(\C(=O)N[C@H]1Cc2cccc(C(=O)O)c2OB1O)c1csc(N)n1 [Example 61, (R,Z)-3-(2-((2-amino-2-oxoethoxy)imino)-2-(2-aminothiazol-4-yl)acetamido)-2-hydroxy-3,4-dihydro-2H-benzo[e][1,2]oxaborinine-8-carboxylic Acid] | – | – | – | – | – | – | – | – | – | C (C represents a potency of <64 μg/mL) | B (B represents a potency between 64 and 1000 μg/mL inclusive) | C (C represents a potency of <64 μg/mL) | C (C represents a potency of <64 μg/mL) | < 64 | 64 to 128
6 | CC(C)(O/N=C(\C(=O)N[C@H]1Cc2cccc(C(=O)O)c2OB1O)c1csc(N)n1)C(=O)O [Example 68, (R,Z)-3-(2-(2-aminothiazol-4-yl)-2-(((2-carboxypropan-2-yl)oxy)imino)acetamido)-2-hydroxy-3,4-dihydro-2H-benzo[e][1,2]oxaborinine-8-carboxylic Acid] | – | – | – | – | – | – | – | – | – | C (C represents a potency of <64 μg/mL) | C (C represents a potency of <64 μg/mL) | C (C represents a potency of <64 μg/mL) | C (C represents a potency of <64 μg/mL) | < 64 | > 128
